# Activity calls are given as the source filed them. The rule behind the calls is not given here.
# How the values were obtained:
# [1] = test system: Radical scavenging activity; experiment: Antioxidant activity measured as ability to react with ABTS radical cation at 15 uM by TRAP assay; type: functional
# HEK-293T [2] = experiment: Loss in viability of human HEK293T cells at 15 uM after 7 hrs relative to control; type: functional, cell-based
# [3] = test system: Radical scavenging activity; experiment: Antioxidant activity measured as ability to reduce ferric tripyridyltriazine complex at 15 uM by FRAP assay; type: functional
# HEK-293T [4] = experiment: Inhibition of TNF-alpha-induced NF-kappaB activation in HEK293T cells; type: functional, cell-based; details: Homo sapiens
# BV-2 [5] = experiment: Suppression of LPS-stimulated COX2 mRNA expression in mouse BV2 cells at 0.15 uM; type: functional, cell-based
# BV-2 [6] = experiment: Suppression of LPS-stimulated COX2 mRNA expression in mouse BV2 cells at 20 uM; type: functional, cell-based
# BV-2 [7] = experiment: Suppression of LPS-stimulated COX2 mRNA expression in mouse BV2 cells at 4 uM; type: functional
SMILES,Activity [1],Activity (HEK-293T [2]),Activity [3],IC50 (HEK-293T [4]) [nM],Activity (BV-2 [5]),Activity (BV-2 [6]),Activity (BV-2 [7]) [%]
COc1ccc(/C=C/c2ccc(O)c(O)c2)cc1,Active,inactive,Active,600,,,
CN(C)c1ccc(/C=C/c2ccccc2)cc1,Active,inactive,Active,150,Active,,
C(=C\c1ccc2ccccc2c1)/c1ccccc1,inactive,inactive,inactive,,,,
COc1ccc(/C=C/c2ccccc2Cl)cc1,inactive,inactive,inactive,1500,,,
COc1ccc(/C=C/c2cccc(O)c2O)cc1,Active,inactive,Active,,,,
COc1ccc(/C=C/c2cccc(F)c2)cc1,inactive,inactive,inactive,,,,
COc1ccc(/C=C/c2ccccc2F)cc1,inactive,inactive,inactive,150,Active,,
Oc1ccc(/C=C/c2cc(O)cc(O)c2)cc1 [RESVERATROL],Active,inactive,Active,20000,,Active,50
COc1ccc(/C=C/c2cccc(C)c2)cc1,inactive,inactive,inactive,800,,,
CCOc1ccc(/C=C/c2ccccc2)cc1,inactive,inactive,inactive,,,,
COc1ccc(/C=C/c2cccc(Cl)c2)cc1,inactive,inactive,inactive,1000,,,
COc1ccc(/C=C/c2cccc(OC)c2)cc1,inactive,inactive,inactive,600,,,
COc1ccc(/C=C/c2ccc(C)cc2)cc1,inactive,inactive,inactive,900,,,

# Reference: ChEMBL document CHEMBL1138878 (J Med Chem, 2006)
